Data as given in PubChem BioAssay AID652053 (Broad Institute, 2013).

Tested on: Huh7 psiCHECK-miR122 Renilla luciferase reporter, 48 h
Assay: suppression of miR-122 activity, Renilla luciferase sensor – cell-based, Huh7 psiCHECK-miR122, cherry-pick, dose response (AID 652053)

Row | SMILES | AC40 [µM]
1 | Cn1c(=O)n(C)c2cc(NS(=O)(=O)c3ccc(C(C)(C)C)cc3)ccc21 | 8.31
2 | CC1CCCCC1NC(=S)Nc1ccc(SC(F)F)cc1 (centres undefined) | 4.15
3 | Cc1cc(S(=O)(=O)N(Cc2ccccc2F)C2CC2)ccc1-n1cnnn1 | 1.94
4 | CC(C)CCC(CC(C)O)C(=O)NNC(=S)Nc1ccccc1 (centres undefined) | 9.74
5 | Cc1cc(C)cc(NS(=O)(=O)c2ccc(NC(=S)NC(=O)c3cccs3)cc2)c1 | < 0.26
6 | Cc1ccc([N+](=O)[O-])cc1N(CC(=O)Nc1ccc(S(=O)(=O)Nc2cccc(C(F)(F)F)c2)cc1)S(C)(=O)=O | 14
7 | COc1ccc(CN(C(=O)c2ccc(-c3ccccc3)[nH]2)C(C(=O)NCC2CCCO2)c2ccc(C)o2)cc1 (centres undefined) | 5.58
8 | O=S(=O)(NC1CCCCC1)c1cccc(-c2nnc(-c3ccccc3)o2)c1 | 2.16
9 | Cc1ccccc1C(=O)Nc1ccc(Br)c(C)n1 | 3.17
10 | CCC(=O)NC(=S)Nc1ccc(S(=O)(=O)NC2CCCCC2)cc1 | 1.1
11 | COc1cc(NS(=O)(=O)c2ccc3c(c2)C(C)(C)C(=O)N3C)cc(OC)c1 | 2.85
12 | C[C@H](CO)N1C[C@H](C)[C@@H](CN(C)Cc2ccc(C(F)(F)F)cc2)Oc2c(cccc2N(C)C)C1=O | 2.48
13 | C[C@@H]1CN([C@H](C)CO)C(=O)c2cccc(NC(=O)NC3CCCCC3)c2O[C@H]1CN(C)Cc1ccc(Cl)c(Cl)c1 | 0.891
14 | Cc1cccc(NS(=O)(=O)c2cccc(C(=O)N3CCCCCCC3)c2)c1 | 1.8
15 | CCOc1ccccc1CN(Cc1ccco1)S(=O)(=O)c1ccc(-n2cnnn2)c(OC)c1 | 4.36
16 | Fc1cccc(Cn2cc(C(=S)N3CCOCC3)c3ccccc32)c1 | 21
17 | Cc1ccc(S(=O)(=O)Nc2ccc3c(c2)C(=O)N([C@@H](C)CO)C[C@H](C)[C@H](CN(C)C(=O)Nc2ccc(F)cc2)OCCCC[C@@H](C)O3)cc1 | 1.86
18 | C[C@@H]1CN([C@@H](C)CO)C(=O)Cc2cc(N(C)C)ccc2O[C@H]1CN(C)Cc1ccc(C(=O)Nc2ccccc2N)cc1 | 10.1
19 | Cc1ccc(NS(=O)(=O)c2ccc(-c3cnc(C4CC4)o3)cc2)cc1 | 9.25
20 | Cc1cc(C)c(S(=O)(=O)Nc2ccc(O)cc2)cc1C | 3.45
21 | Cc1ccc(NS(=O)(=O)c2cccc3nsnc23)cc1C | 4.13
22 | CN1CCN(C(=O)c2cc3nc(-c4ccccc4)cc(-c4ccccc4)n3n2)CC1 | 2.23
23 | Cc1ccc(S(=O)(=O)NC(=NCc2ccccc2)c2ccc(F)cc2)cc1 | 5.08
24 | O=S(=O)(c1ccccc1F)N1CC[C@@H]2[C@@H](CO)Nc3ccc(-c4ccc(F)cc4)cc3[C@@H]21 | 5.7
25 | O=S(=O)(Nc1ccc(Cl)cc1)c1cccc2nsnc12 | 14.8
26 | CCc1ccc(NS(=O)(=O)c2ccc(OC)c3ncccc23)cc1 | 0.362

Row | SMILES | AC40 [µM]
27 | S=C(NCc1cccs1)Nc1cccc(Cl)c1 | 3.93
28 | Cc1ccc(C(=O)NCc2ccncc2)cc1S(=O)(=O)Nc1cccc(C)c1C | 1.93
29 | C[C@H]1CN([C@@H](C)CO)C(=O)c2cccc(NC(=O)C3CC3)c2O[C@@H]1CN(C)Cc1ccc(C(F)(F)F)cc1 | 0.42
30 | COc1ccc(S(=O)(=O)NCc2ccccc2)cc1 | 2.53
31 | COc1ccc(S(=O)(=O)NC2CCCCC2)c(C)c1C | 1.57
32 | CCOC(=O)c1ccc(NS(=O)(=O)c2cc(C)ccc2OC)cc1 | 8.03
33 | O=S(=O)(Nc1ccc(N2CCOCC2)cc1)c1cc(Cl)ccc1Cl | 26.6
34 | COc1cc(S(=O)(=O)NC2CCCC2)c(OC)cc1Cl | 2.6
35 | COc1ccc(S(=O)(=O)N(C)C[C@H]2Oc3ccc(NC(=O)Nc4ccc(F)cc4)cc3C(=O)N([C@H](C)CO)C[C@H]2C)cc1 | 0.631
36 | COc1ccc(C)cc1S(=O)(=O)NC1CCCCCC1 | 2.03
37 | Cc1ccc(O)c(NC(=O)c2cccc(S(=O)(=O)N3CCCCC3)c2)c1 | 2.39
38 | CC1CCCN(C(=O)Cn2nnc(-c3cccnc3)n2)C1 (centres undefined) | 14.4
39 | Cc1cc(S(=O)(=O)Nc2cccc(Cl)c2)c(C)s1 | 0.486
40 | COc1cc(S(=O)(=O)NC2CCCCC2)c(C)cc1C | 0.686
41 | CC(C)NC(=O)Nc1cccc2c1O[C@@H](CN(C)Cc1ccc(C(F)(F)F)cc1)[C@H](C)CN([C@H](C)CO)C2=O | 1.52
42 | Cc1ccc(S(=O)(=O)Nc2cc(C)c(O)c(S(=O)(=O)c3ccc(C)cc3)c2)cc1 | 11.2
43 | O=S(=O)(Nc1ccc(Cl)cc1)c1cccc2cccnc12 | 4.21
44 | CCN(CC)C(=O)CN(c1cc2c(cc1OC)oc1ccccc12)S(=O)(=O)c1ccccc1 | 1.69
45 | Cc1ccc(S(=O)(=O)Nc2ccc3c(c2)CCC3)cc1 | 6.54
46 | CCOc1cc(C)c(S(=O)(=O)NC2CCCCC2)cc1C | 1.49
47 | CCOc1ccc(-c2cc(N)n(S(=O)(=O)c3ccc(OC)c(OC)c3)n2)cc1 | 4.11
48 | COC(=O)c1[nH]c2ccccc2c1NC(=O)CN1CCCc2ccccc21 | 21.5
49 | Cc1ccc(-c2nnc(Nc3ccccc3)c3ccccc23)cc1S(=O)(=O)NCC1CCCO1 (centres undefined) | 0.63
50 | CCOc1cc(S(=O)(=O)NCCc2ccccc2C)c(OCC)cc1-n1cnnn1 | 2.52
51 | COc1ccc(S(=O)(=O)Nc2ccc(S(=O)(=O)N3CCOCC3)cc2)cc1 | 14.7
52 | Cc1ccc(Cn2c(NS(=O)(=O)c3ccccc3)nc3ccccc32)cc1 | 2

Row | SMILES | AC40 [µM]
53 | COc1cc(S(=O)(=O)NC2CCCC2)c(OC)cc1C | 3.17
54 | COc1cccc(-c2ccc3c(c2)[C@H]2[C@H](CCN2S(=O)(=O)c2ccccc2C)[C@@H](CO)N3)c1 | 14.3
55 | CCN(Cc1ccccc1)C(=O)c1[nH]c2ccc(OC)cc2c1C | 12
56 | Nc1c(S(=O)(=O)c2cc(Cl)ccc2Cl)c2nc3ccccc3nc2n1CCN1CCOCC1 | 6.22
57 | CN1c2ccc(-c3cccc(F)c3)cc2[C@H]2[C@H](CCN2S(=O)(=O)c2cccc(F)c2)[C@H]1CO | 6.4
58 | CCc1ccc(OC)c(S(=O)(=O)Nc2ccccc2C)c1 | 1.03
59 | CN1c2ccc(-c3ccccc3F)cc2[C@H]2[C@H](CCN2S(=O)(=O)c2ccccc2F)[C@H]1CO | 2.4
60 | Cc1ccc(C)c(S(=O)(=O)Nc2ccc3cn[nH]c3c2)c1 | 3.58
61 | O=S(=O)(NC(=NCc1ccccc1)c1ccc(F)cc1)c1ccc(Cl)cc1 | 13.7
62 | CC(=O)N1c2c(cc(Br)cc2S(=O)(=O)NCc2ccccc2)CC1C (centres undefined) | 5.96
63 | COc1ccc(NS(=O)(=O)c2cc(Br)cc3c2N(C(C)=O)CC3)cc1 | 2.67
64 | CCCCCNS(=O)(=O)c1cc2c3c(c1)CCC(=O)N3CCC2 | 4.75
65 | O=C(NCCCN1CCCC1=O)c1cccc(S(=O)(=O)Nc2ccc(Br)cc2)c1 | 7.56
66 | Cc1ccc(S(=O)(=O)Nc2ccc(C(=O)Nc3cc(C)on3)cc2)cc1 | 1.44
67 | COc1ccc(OC)c(S(=O)(=O)Nc2cccc(-c3ccc4nncn4n3)c2)c1 | 2.4
68 | Cc1ccc(-c2nnc(Nc3ccc4c(c3)OCO4)c3ccccc23)cc1S(N)(=O)=O | 5.9
69 | O=S(=O)(Nc1ncnc2c1oc1ccccc12)c1ccc(Cl)s1 | 18.8
70 | C[C@H](CO)N1C[C@H](C)[C@@H](CN(C)Cc2ccc(C(=O)Nc3ccccc3N)cc2)Oc2ccc(N(C)C)cc2CC1=O | 11.3
71 | C[C@@H]1CN([C@H](C)CO)C(=O)Cc2cc(NC(=O)Nc3ccc4c(c3)OCO4)ccc2O[C@@H]1CN(C)C(=O)Nc1cccc2ccccc12 | 0.579
72 | CCCNC(=O)NC[C@H]1[C@@H](c2ccc(C3=CCCC3)cc2)[C@@H](CO)N1C(=O)CC | 10.2
73 | C/C(=N\Nc1ccccn1)c1ccc(S(=O)(=O)NCc2ccco2)cc1 | 6.97
74 | C[C@H]1CN([C@@H](C)CO)C(=O)Cc2cc(NC(=O)Nc3ccc(C(F)(F)F)cc3)ccc2O[C@H]1CN(C)S(=O)(=O)c1ccc(F)cc1 | 14
75 | Cc1ccc(C(=O)NCCSC2CCCCC2)cc1S(=O)(=O)Nc1ccccc1 | 6.44
76 | Cc1ccc(NS(=O)(=O)c2cc(C(=O)N3CCN(C)CC3)ccc2C)cc1C | 25.1
77 | Cc1ccc(C(=O)NCCSc2ccc(Cl)cc2)cc1S(=O)(=O)Nc1ccccc1 | 4.3
78 | COc1ccc(S(=O)(=O)Nc2cc(C)ccc2OC)cc1C | 3.63

Row | SMILES | AC40 [µM]
79 | CCCC#Cc1ccc2c(c1)O[C@H](CN(C)C(=O)c1ccccn1)[C@@H](C)CN([C@H](C)CO)S2(=O)=O | 11.3
80 | CC(C)c1ccc(NC(=O)Cc2cn(C)c3ccccc23)cc1 | 11.9
81 | COc1ccc(NS(=O)(=O)c2cc(NC(=O)c3cccc(OCc4c(C)noc4C)c3)ccc2OC)cc1 | 2.57
82 | Cc1cc(C)c(S(=O)(=O)Nc2ccc3c4c(cccc24)CC3)c(C)c1 | 7.76
83 | Cc1cc(C)cc(NS(=O)(=O)c2ccc(NC(=S)NC(=O)c3ccc(Br)o3)cc2)c1 | 0.769
84 | COc1ccccc1NS(=O)(=O)c1cc(NC(=O)c2cccs2)ccc1N1CCOCC1 | 0.895
85 | COc1ccc(S(=O)(=O)Nc2ccc(F)cc2)c(C)c1C | 0.922
86 | CCC(=O)N1N=C(c2ccc(NS(=O)(=O)c3ccc(C)cc3)cc2)CC1c1ccco1 (centres undefined) | 4.52
87 | COc1cccc(NS(=O)(=O)c2cc(C)ccc2OC)c1 | 1.53
88 | CCCC(=O)Nc1ccc2c(c1)C(=O)N(C)[C@H]1CC[C@@H](CC(=O)NCc3cccc(F)c3)O[C@H]1CO2 | 0.762
89 | Cc1cc(C)c(S(=O)(=O)N2CCN=C2c2ccccc2)cc1C | 10.3
90 | CCOC(=O)c1cc(S(=O)(=O)Nc2cccc(OC)c2)cn1C | 1.84
91 | COC(=O)c1ccc(Nc2nnc(-c3ccc(C)c(S(=O)(=O)NCC4CCCO4)c3)c3ccccc23)cc1 (centres undefined) | 0.761
92 | COc1ccc(S(=O)(=O)NCCSC(C)(C)C)c(Cl)c1Cl | 8.16
93 | COc1ccc(C)cc1S(=O)(=O)Nc1cc(Cl)ccc1Cl | 2.5
94 | COc1ccccc1NS(=O)(=O)c1cc(NC(=O)CCC2CCCC2)ccc1N1CCOCC1 | 1.45
95 | COc1cc(NS(=O)(=O)c2ccc(Br)s2)cc(OC)c1 | 5.31
96 | COC(=O)C1CC23C=CCN4CCC5(c6ccccc6NC15C2C)C43 (centres undefined) | 20.1
97 | COc1cc(S(=O)(=O)NCc2cccnc2)c(OC)cc1Br | 4.72
98 | COc1ccc(NS(=O)(=O)c2cc(C)ccc2NC(=O)c2cc(C)oc2C)cc1 | 3.23
99 | COc1ccc(C)cc1S(=O)(=O)NC1CCCCC1 | 1.31
100 | Cc1cc(C)c(C)c(S(=O)(=O)NC2CCCCC2)c1C | 0.607
101 | CC(NC(=O)CNC(=S)N(Cc1cccs1)C1CCCC1)c1ccccc1 (centres undefined) | 1.47
102 | O=C(N/N=C/c1cccs1)C(O)c1ccccc1 (centres undefined) | 15.2
103 | COc1cc(S(=O)(=O)Nc2ccccc2N2CCCCC2)ccc1NC(C)=O | 6.94
104 | Cc1cc(C(O)c2ncc(-c3ccccc3F)[nH]2)ccc1F (centres undefined) | 3.57
